Laboratory results published in patent US20060258748A1 (Chevron U.S.A. Inc., priority 2005, published 2006).

Key:
NMDA receptor [1] = assay: [3H]MK-801 binding assay, NMDA receptors in guinea pig brain membranes; settings: for Relative affinity: compared to that of Memantine
Method: Hartley guinea pigs were sacrificed, and their brains were quickly removed and weighed. The brains then were homogenized in 50 mM Tris HCl buffer, pH 7.7, using a Polytron homogenizer. The homogenate was centrifuged at 40,000×g for 15 min, rehomogenized, and centrifuged again. The final pellet was resuspended in Tris-HCl, pH 7.7, at a final concentration of 6.67 mg original wet weight of tissue/ml. […] The samples were then filtered through glass fiber filters on a Tomtec cell harvester. The filters were washed 3 times with 3 ml of cold buffer. Filters were dried overnight and counted next day on a Wallac Betaplate Reader.
The binding experiments were conducted as follows. […] For each compound, graphs were prepared containing individual competition curves obtained for that compound. IC50 values and Hill coefficients were calculated using the program Prism. Ki values were calculated using the Chang Prusoff transformation: Ki═IC50/(1+L/Kd)
where L is radioligand concentration and Kd is the binding affinity of the radioligand, as determined previously by saturation analysis. […] In each experiment, one standard compound was simultaneously run on each 96 well plate.

[2] = Dissolving compounds for 10 mM stock solutions; assay type: physicochemical; settings: molecusol, acetic acid, propylene glycol, then hot water
Method: Following assay establishment, the test compounds were tested for binding affinities. The concentrations selected for the experiments were chosen according to what was found for memantine in our assay. The first task was to dissolve the compounds and make up the 10 mM stock solution for further experiments. Those compounds that were made into salt format were easy to dissolve in deionized water, but the other compounds were difficult to bring into solution. Several “assay friendly” solvents have been tried, such as molecusol, acetic acid and propylene glycol followed by putting the vial into hot water.

NMDA receptor [3] = assay: Whole-cell voltage-clamp recording of NMDA evoked currents in hypocretin neurons of hypothalamic slices; assay type: cell-based, mouse; settings: washout of the compound

SMILES | Relative affinity (NMDA receptor [1]) | solubility in assay friendly solvents [2] | also measured
NC12CC3C4CC5CC3C(C1)C(C5)C4C2 [MDT-3, 4-aminodiamantane] | 0.017 |  | 
CC12CC3CC(C)(C1)CC(N)(C3)C2 [Memantine, 1-amino-3,5-dimethyladamantane, reference compound] | 1 |  | Ki (NMDA receptor [1]; [3H]MK-801 1 nM, guinea pig brain membranes, read-out: Ki at the NMDA site (standard compounds)): 602 ± 27 nM
O=C(O)C12CC3C4CC5(C(=O)O)CC3C(C1)C(C5)C4C2 [MDT-20, 4,9-diamantane dicarboxylic acid] |  | did not go into solution, or came out with time | 
OC12CC3CC4C5CC(CC41)CC2C5C3 [MDT-10, 1-hydroxydiamantane] | 0.015 | went into solution | 
NC12CC3CC4C5CC(CC41)CC2C5C3 [MDT-2, 1-aminodiamantane] | 0.094 |  | 
O=C(O)C12CC3CC4C1CC1CC2C(C3)C4(C(=O)O)C1 [MDT-19, 1,6-diamantane dicarboxylic acid] | 0.091 | did not go into solution, or came out with time | 
CC12CC3CC4C1CC1CC2C(N)(C3)C4(C)C1 (stereo not drawn) [MDT-23, 1,6-dimethyl-2-aminodiamantane] |  |  | reversibility of inhibition of NMDA evoked currents upon washout (NMDA receptor [3]): not reversible
NC12CC3CC4C1CC1CC2C(C3)C4(N)C1 [MDT-4, 1,6-diaminodiamantane] | 0.006 |  | 
CC12CC3CC4C1CC1CC4[C@](N)(C3)C2C1 [MDT-22, 1-methyl-7-aminodiamantane] |  |  | reversibility of inhibition of NMDA evoked currents upon washout (NMDA receptor [3]): reversible
NC12CC3C4CC5(N)CC3C(C1)C(C5)C4C2 [MDT-5, 4,9-diaminodiamantane] | 0.002 |  | 
O=C(O)C12CC3CC4C5CC(CC41)CC2C5C3 [MDT-17, 1-diamantane carboxylic acid] | 0.063 | did not go into solution, or came out with time | 

Further lines, with some results ahead:

Relative affinity (NMDA receptor [1]) | solubility in assay friendly solvents [2] | SMILES | also measured
 | went into solution | OC12CC3C4CC5(O)CC3C(C1)C(C5)C4C2 [MDT-14, 4,9-dihydroxydiamantane] | 
 | went into solution | OC12CC3CC4C1CC1CC4C(O)(C3)C2C1 [MDT-13, 1,7-dihydroxydiamantane] | 
0.077 | went into solution | OC12CC3CC4C1CC1CC2C(C3)C4(O)C1 [MDT-12, 1,6-dihydroxydiamantane] | 
 | went into solution | OC12CC3C4CC5C6CC7(O)CC5C(C4C1)C(C2)(C7)C36 [MDT-15, 9,15-dihydroxytriamantane] | 
 | went into solution | OC12CC3C4CC5CC3C(C1)C(C5)C4C2 [MDT-11, 4-diamantanol] | 
